Laboratory results: PMC10233829 (ACS Omega, 2023)
Converted amounts (≈) assume the structure as drawn.

Tested on: M. tuberculosis Spec 210
Assay: microbe, parasite or virus in culture
Type: cell-based, Mycobacterium tuberculosis
Settings: for MIC M. tuberculosis Spec 210 (multidrug-resistant): MABA; for MIC: Mycobacterium tuberculosis, SPEC210, read-out: MIC M. tuberculosis Spec 210 (multidrug-resistant), MABA

| SMILES | MIC M. tuberculosis Spec 210 (multidrug-resistant) [µg/mL] | MIC [µg/mL] |
| --- | --- | --- |
| C=CC(=O)N1CCN(c2cc3c(cc2F)c(=O)c(C(=O)O)cn3C2CC2)CC1 [Compound 1, 7-(4-Acryloyl-piperazin-1-yl)-1-cyclopropyl-6-fluoro-4-oxo-1,4-dihydro-quinoline-3-carboxylic Acid] | 2 (≈ 5.19 µM) | 1 to 2 (≈ 2.59 to 5.19 µM) |
| O=C(O)c1cn(C2CC2)c2cc(N3CCN(C(=O)C4CC4)CC3)c(F)cc2c1=O [Compound 2, 7-(4-Cyclopropanecarbonyl-piperazin-1-yl)-1-cyclopropyl-6-fluoro-4-oxo-1,4-dihydro-quinoline-3-carboxylic Acid] | – | ≤ 0.25 |
| O=C(O)c1cn(C2CC2)c2cc(N3CCN(C(=O)CCl)CC3)c(F)cc2c1=O [Compound 3, 7-[4-(2-Chloroacetyl)-piperazin-1-yl]-1-cyclopropyl-6-fluoro-4-oxo-1,4-dihydro-quinoline-3-carboxylic Acid] | 2 (≈ 4.9 µM) | 1 to 2 (≈ 2.45 to 4.9 µM) |
| O=C(O)c1cn(C2CC2)c2cc(N3CCN(C(=O)CCCl)CC3)c(F)cc2c1=O [Compound 4, 7-[4-(3-Chloropropionyl)-piperazin-1-yl]-1-cyclopropyl-6-fluoro-4-oxo-1,4-dihydro-quinoline-3-carboxylic Acid] | 2 (≈ 4.74 µM) | 1 to 2 (≈ 2.37 to 4.74 µM) |
| O=C(O)c1cn(C2CC2)c2cc(N3CCN(C(=O)CCCCl)CC3)c(F)cc2c1=O [Compound 5, 7-[4-(4-Chlorobutyryl)-piperazin-1-yl]-1-cyclopropyl-6-fluoro-4-oxo-1,4-dihydro-quinoline-3-carboxylic Acid] | – | ≤ 0.25 |
| O=C(O)c1cn(C2CC2)c2cc(N3CCN(C(=O)CCCCCl)CC3)c(F)cc2c1=O [Compound 6, 7-[4-(5-Chloropentanoyl)-piperazin-1-yl]-1-cyclopropyl-6-fluoro-4-oxo-1,4-dihydro-quinoline-3-carboxylic Acid] | – | ≤ 0.25 |
| O=C(O)c1cn(C2CC2)c2cc(N3CCN(C(=O)CCCCCCl)CC3)c(F)cc2c1=O [Compound 7, 7-[4-(6-Chlorohexanoyl)-piperazin-1-yl]-1-cyclopropyl-6-fluoro-4-oxo-1,4-dihydro-quinoline-3-carboxylic Acid] | – | ≤ 0.25 |
| O=C(O)c1cn(C2CC2)c2cc(N3CCN(C(=O)CBr)CC3)c(F)cc2c1=O [Compound 8, 7-[4-(2-Bromoacetyl)-piperazin-1-yl]-1-cyclopropyl-6-fluoro-4-oxo-1,4-dihydro-quinoline-3-carboxylic Acid] | – | 8 (≈ 17.7 µM) |
| O=C(O)c1cn(C2CC2)c2cc(N3CCN(C(=O)CCBr)CC3)c(F)cc2c1=O [Compound 9, 7-[4-(3-Bromopropionyl)-piperazin-1-yl]-1-cyclopropyl-6-fluoro-4-oxo-1,4-dihydro-quinoline-3-carboxylic Acid] | 1 (≈ 2.14 µM) | 1 to 2 (≈ 2.14 to 4.29 µM) |
| O=C(O)c1cn(C2CC2)c2cc(N3CCN(C(=O)CCCBr)CC3)c(F)cc2c1=O [Compound 10, 7-[4-(4-Bromobutyryl)-piperazin-1-yl]-1-cyclopropyl-6-fluoro-4-oxo-1,4-dihydro-quinoline-3-carboxylic Acid] | – | ≤ 0.25 |
| O=C(O)c1cn(C2CC2)c2cc(N3CCN(C(=O)CCCCBr)CC3)c(F)cc2c1=O [Compound 11, 7-[4-(5-Bromopentanoyl)-piperazin-1-yl]-1-cyclopropyl-6-fluoro-4-oxo-1,4-dihydro-quinoline-3-carboxylic Acid] | – | ≤ 0.25 |
| O=C(O)c1cn(C2CC2)c2cc(N3CCN(C(=O)CCCCCBr)CC3)c(F)cc2c1=O [Compound 12, 7-[4-(6-Bromohexanoyl)-piperazin-1-yl]-1-cyclopropyl-6-fluoro-4-oxo-1,4-dihydro-quinoline-3-carboxylic Acid] | – | ≤ 0.25 |
| O=C(O)c1cn(C2CC2)c2cc(N3CCN(C(=O)CCCCCCCCCCBr)CC3)c(F)cc2c1=O [Compound 13, 7-[4-(11-Bromoundekanoyl)-piperazin-1-yl]-1-cyclopropyl-6-fluoro-4-oxo-1,4-dihydro-quinoline-3-carboxylic Acid] | 1 (≈ 1.73 µM) | 1 to 2 (≈ 1.73 to 3.46 µM) |
| O=C(O)c1cn(C2CC2)c2cc(N3CCN(C(=O)CC(F)(F)F)CC3)c(F)cc2c1=O [Compound 14, 7-[4-(3,3,3-Trifluoropropionyl)-piperazin-1-yl]-1-cyclopropyl-6-fluoro-4-oxo-1,4-dihydro-quinoline-3-carboxylic Acid] | – | 32 (≈ 72.5 µM) |
| O=C(O)c1cn(C2CC2)c2cc(N3CCN(C(=O)CCC(F)(F)F)CC3)c(F)cc2c1=O [Compound 15, 7-[4-(4,4,4-Trifluorobutyryl)-piperazin-1-yl]-1-cyclopropyl-6-fluoro-4-oxo-1,4-dihydro-quinoline-3-carboxylic Acid] | – | 32 (≈ 70.3 µM) |
| O=C(O)c1cn(C2CC2)c2cc(N3CCN(C(=O)CCCC(F)(F)F)CC3)c(F)cc2c1=O [Compound 16, 7-[4-(5,5,5-Trifluoropentanoyl)-piperazin-1-yl]-1-cyclopropyl-6-fluoro-4-oxo-1,4-dihydro-quinoline-3-carboxylic Acid] | – | 32 (≈ 68.2 µM) |
| O=C(O)c1cn(C2CC2)c2cc(N3CCN(CC(=O)N4CCN(c5cc6c(cc5F)c(=O)c(C(=O)O)cn6C5CC5)CC4)CC3)c(F)cc2c1=O [Compound 17, CP–Acetyl–CP Dimer] | – | 16 (≈ 22.8 µM) |
| O=C(O)c1cn(C2CC2)c2cc(N3CCN(CCCC(=O)N4CCN(c5cc6c(cc5F)c(=O)c(C(=O)O)cn6C5CC5)CC4)CC3)c(F)cc2c1=O [Compound 18, CP–Butyryl–CP Dimer] | – | 4 (≈ 5.47 µM) |
| O=C(O)c1cn(C2CC2)c2cc(N3CCN(CCCCC(=O)N4CCN(c5cc6c(cc5F)c(=O)c(C(=O)O)cn6C5CC5)CC4)CC3)c(F)cc2c1=O [Compound 19, CP–Pentanoyl–CP Dimer] | 1 (≈ 1.34 µM) | 1 to 2 (≈ 1.34 to 2.69 µM) |
| O=C(O)c1cn(C2CC2)c2cc(N3CCN(CCCCCC(=O)N4CCN(c5cc6c(cc5F)c(=O)c(C(=O)O)cn6C5CC5)CC4)CC3)c(F)cc2c1=O [Compound 20, CP–Hexanoyl–CP Dimer] | – | 16 (≈ 21.1 µM) |
| O=C(O)c1cn(C2CC2)c2cc(N3CCN(CCCCCCCCCCC(=O)N4CCN(c5cc6c(cc5F)c(=O)c(C(=O)O)cn6C5CC5)CC4)CC3)c(F)cc2c1=O [Compound 21, CP–Undecanoyl–CP Dimer] | 1 (≈ 1.21 µM) | 1 to 2 (≈ 1.21 to 2.41 µM) |
| CC[C@@H](CO)NCCN[C@@H](CC)CO [ethambutol(EMB), ethambutol, reference compound] | – | 32 (≈ 157 µM) |
| NNC(=O)c1ccncc1 [isoniazid (INH), isoniazid, reference compound] | – | 16 (≈ 117 µM) |
| CO[C@H]1/C=C/O[C@@]2(C)Oc3c(C)c(O)c4c(O)c(c(/C=N/N5CCN(C)CC5)c(O)c4c3C2=O)NC(=O)/C(C)=C\C=C\[C@H](C)[C@H](O)[C@@H](C)[C@@H](O)[C@@H](C)[C@H](OC(C)=O)[C@@H]1C [rifampicin (RMP), rifampicin, reference compound] | – | 32 (≈ 38.9 µM) |
| [H]/N=C(/N)N[C@H]1[C@H](O)[C@@H](O)[C@H](O[C@@H]2O[C@@H](C)[C@](O)(C=O)[C@H]2O[C@@H]2O[C@@H](CO)[C@H](O)[C@@H](O)[C@@H]2NC)[C@@H](N/C(N)=N\[H])[C@@H]1O [streptomycin (SM), streptomycin, reference compound] | – | 16 (≈ 27.5 µM) |
